Data reported in the NIST ThermoML archive (doi:10.1021/je900830s).
± gives the expanded uncertainty stated by the source.

Conditions: 101.33 kPa, Liquid, Buoyancy - hydrostatic balance with magnetic suspension - one sinker

Which mass density (313.2 K) does the source give for CCO [ethanol] here?
Its mass density is 768.9 ± 3.5 kg/m3.

And the mass density (338.2 K)?
Its mass density is 752.7 ± 1.7 kg/m3.

And the mass density (343.2 K)?
The mass density was 732.4 ± 1.2 kg/m3.
